The experiment concerns 3,6-L-AHG transferase. Nature of the experiment: Quantitative analysis of 3,6-L-AHG with the final active fraction and NADP^+ (absorbance at 339 nm). It counts as biochemical, Saccharophagus degradans. To be noted: 50 minute reaction, relative concentrations 1, 0.5, 0.25, 0.1 and 0.05 (1 = 20 mg/mL), FIG. 1. How it is done:
7.5 μl of the final active fraction obtained in Preparation Example 2, 0.1 mM of NADP^+, and 50 mM of Tris-HCl (pH 8.0) are mixed to prepare 100 μl of a composition for quantitative analysis of 3,6-L-AHG.
An amount of 3,6-L-AHG is added to various 100 μl samples of the composition for quantitative analysis of 3,6-L-AHG obtained in Preparation Example 4 to achieve dilution factors for the 3,6-L-AHG of 1, 0.5, 0.25, 0.1 and 0.05 in terms of relative concentrations. A relative 3,6-L-AHG concentration of 1 corresponds to 20 mg/mL. Reaction is carried out for 50 minutes, and then absorbance is measured at 339 nm using a microplate spectrophotometer (Bio-Tek Instruments, Inc.) according to the End-point UV method.

Take `O=C[C@@H](O)[C@@H]1OC[C@H](O)[C@H]1O` [3,6-L-AHG, 3,6-anhydro-L-galactose]: the “amount of NADPH produced versus amount of 3,6-L-AHG in the sample” value was “linearly related”.

For the origin of these results see patent US8486654B2, “Compositions and methods for measuring 3,6-L-AHG transferase activity and 3,6-L-AHG” (Samsung Electronics Co., Ltd., priority 2010, dated 2013).
